Laboratory results as given in patent publication US20240270759A1, “Preparation of SHP2 phosphatase inhibitors and its applications” (Ya Therapeutics Inc, priority 2021, published 2024).

Target: T1, SHP2 full-length protein (Homo sapiens, UniProt Q06124)
T1 construct: purchased BPS Bioscience #79330
T1 sequence (Q06124 1-593): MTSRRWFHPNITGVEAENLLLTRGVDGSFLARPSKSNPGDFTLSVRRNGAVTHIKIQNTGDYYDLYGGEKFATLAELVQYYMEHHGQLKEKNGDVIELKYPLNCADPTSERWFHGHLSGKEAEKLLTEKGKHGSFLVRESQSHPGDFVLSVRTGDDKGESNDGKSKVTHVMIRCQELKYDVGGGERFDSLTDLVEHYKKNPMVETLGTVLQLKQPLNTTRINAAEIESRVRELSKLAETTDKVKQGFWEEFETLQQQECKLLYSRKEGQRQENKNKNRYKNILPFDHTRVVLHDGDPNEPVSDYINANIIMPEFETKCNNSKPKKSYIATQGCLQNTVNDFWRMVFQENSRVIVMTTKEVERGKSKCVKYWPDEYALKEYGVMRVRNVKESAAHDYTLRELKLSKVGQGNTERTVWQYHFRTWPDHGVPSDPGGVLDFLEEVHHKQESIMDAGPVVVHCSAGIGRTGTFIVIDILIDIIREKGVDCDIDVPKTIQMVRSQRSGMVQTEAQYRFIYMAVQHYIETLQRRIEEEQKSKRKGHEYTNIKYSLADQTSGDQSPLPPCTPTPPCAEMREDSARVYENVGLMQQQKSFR
Test: SHP2 allosteric inhibition experiment (Homogeneous Full Length SHP-2 Assay Kit)
Format: biochemical
Settings: full-length SHP2 0.06 nM with SHP-2 activating peptide; ten-point, 1 μM to 0.05 nM; read-out: IC50 Values of Compounds Inhibiting SHP2

C[C@@H]1OCC2(CCN(c3cnc(Sc4cccc(Nc5cccnc5)c4Cl)nc3)CC2)[C@@H]1N [Compound 107, (3S,4S)-8-(2-((2-chloro-3-(pyridine-3-amino)phenyl)mercapto)pyrimidine-5-yl)-3-me thyl-2-oxa-8-azaspiro[4.5]decane-4-amine]
IC50: 10 to 100 nM

C[C@@H]1OCC2(CCN(c3cnc(Sc4cccc(Nc5ncccn5)c4Cl)nc3)CC2)[C@@H]1N [Compound 108, (3S,4S)-8-(2-((2-chloro-3-(pyrimidine-2-amino)phenyl)mercapto)pyrimidine-5-yl)-3-methyl-2-oxa-8-azaspiro[4.5]decane-4-amine]
IC50: 10 to 100 nM

C[C@@H]1OCC2(CCN(c3cnc(Sc4cccc(Nc5cnccn5)c4Cl)nc3)CC2)[C@@H]1N [Compound 109, (3S,4S)-8-(2-((2-chloro-3-(pyrazine-2-amino)phenyl)mercapto)pyrimidine-5-yl)-3-me thyl-2-oxa-8-azaspiro[4.5]decane-4-amine]
IC50: 10 to 100 nM

C[C@@H]1OCC2(CCN(c3cnc(Sc4cccc(Nc5ccncn5)c4Cl)nc3)CC2)[C@@H]1N [Compound 110, (3S,4S)-8-(2-((2-chloro-3-(pyrimidine-4-amino)phenyl)mercapto)pyrimidine-5-yl)-3-methyl-2-oxa-8-azaspiro[4.5]decane-4-amine]
IC50: 10 to 100 nM

C[C@@H]1OCC2(CCN(c3ncc(Sc4cccc(-c5ccn(C)n5)c4Cl)cn3)CC2)[C@@H]1N [Compound 111, (3S,4S)-8-(5-((2-chloro-3-(1-methyl-1H-pyrazole-3-yl)phenyl)mercapto)pyrimidine-2-yl)-3-methyl-2-oxa-8-azaspiro[4.5]decane-4-amine]
IC50: 10 to 100 nM

CCn1ccc(-c2cccc(Sc3cnc(N4CCC5(CC4)CO[C@@H](C)[C@H]5N)nc3)c2Cl)n1 [Compound 112, (3S,4S)-8-(5-((2-chloro-3-(1-ethyl-1H-pyrazole-3-yl)phenyl)mercapto)pyrimidine-2-yl)-3-methyl-2-oxa-8-azaspiro[4.5]decane-4-amine]
IC50: 10 to 100 nM

CC(C)n1ccc(-c2cccc(Sc3cnc(N4CCC5(CC4)CO[C@@H](C)[C@H]5N)nc3)c2Cl)n1 [Compound 113, (3S,4S)-8-(5-((2-chloro-3-(1-isopropyl-1H-pyrazole-3-yl)phenyl)mercapto)pyrimidine-2-yl)-3-methyl-2-oxa-8-azaspiro[4.5]decane-4-amine]
IC50: 10 to 100 nM

C[C@@H]1OCC2(CCN(c3ncc(Sc4cccc(NC(=O)c5c(O)nc6n(c5=O)CCCC6)c4Cl)cn3)CC2)[C@@H]1N [Compound 114, N-(3-((2-((3S,4S)-4-amino-3-methyl-2-oxa-8-azaspiro[4.5]decane-8-yl)pyrimidine-5-yl)mercapto)-2-chlorophenyl)-2-hydroxyl-4-oxo-6,7,8,9-tetrahydro-4H-pyridinyl[1,2-a]pyrimidine-3-carboxamide]
IC50: 10 to 100 nM

C[C@@H]1OCC2(CCN(c3ncc(Sc4cccc(-c5cncnc5)c4Cl)cn3)CC2)[C@@H]1N [Compound 115, (3S,4S)-8-(5-((2-chloro-3-(pyrimidine-5-yl)phenyl)mercapto)pyrimidine-2-yl)-3-methyl-2-oxa-8-azaspiro[4.5]decane-4-amine]
IC50: ≤ 10 nM

C[C@@H]1OCC2(CCN(c3ncc(Sc4cccc(-c5cnccn5)c4Cl)cn3)CC2)[C@@H]1N [Compound 116, (3S,4S)-8-(5-((2-chloro-3-(pyrazine-2-yl)phenyl)mercapto)pyrimidine-2-yl)-3-methyl-2-oxa-8-azaspiro[4.5]decane-4-amine]
IC50: ≤ 10 nM

C[C@@H]1OCC2(CCN(c3ncc(Sc4cccc(-c5cccnc5)c4Cl)cn3)CC2)[C@@H]1N [Compound 117, (3S,4S)-8-(5-((2-chloro-3-(pyridine-3-yl)phenyl)mercapto)pyrimidine-2-yl)-3-methyl-2-oxa-8-azaspiro[4.5]decane-4-amine]
IC50: ≤ 10 nM

C[C@@H]1OCC2(CCN(c3ncc(Sc4cccc(-c5ccncn5)c4Cl)cn3)CC2)[C@@H]1N [Compound 118, (3S,4S)-8-(5-((2-chloro-3-(pyrimidine-4-yl)phenyl)mercapto)pyrimidine-2-yl)-3-methyl-2-oxa-8-azaspiro[4.5]decane-4-amine]
IC50: ≤ 10 nM

C[C@@H]1OCC2(CCN(c3ncc(Sc4cccc(Nc5cccnc5)c4Cl)cn3)CC2)[C@@H]1N [Compound 119, (3S,4S)-8-(5-((2-chloro-3-(pyridine-3-amino)phenyl)mercapto)pyrimidine-2-yl)-3-me thyl-2-oxa-8-azaspiro[4.5]decane-4-amine]
IC50: ≤ 10 nM

C[C@@H]1OCC2(CCN(c3ncc(Sc4cccc(Nc5ncccn5)c4Cl)cn3)CC2)[C@@H]1N [Compound 120, (3S,4S)-8-(5-((2-chloro-3-(pyrimidine-2-amino)phenyl)mercapto)pyrimidine-2-yl)-3-methyl-2-oxa-8-azaspiro[4.5]decane-4-amine]
IC50: ≤ 10 nM

C[C@@H]1OCC2(CCN(c3ncc(Sc4cccc(Nc5cnccn5)c4Cl)cn3)CC2)[C@@H]1N [Compound 121, (3S,4S)-8-(5-((2-chloro-3-(pyrazine-2-amino)phenyl)mercapto)pyrimidine-2-yl)-3-me thyl-2-oxa-8-azaspiro[4.5]decane-4-amine]
IC50: ≤ 10 nM

C[C@@H]1OCC2(CCN(c3ncc(Sc4cccc(Nc5ccncn5)c4Cl)cn3)CC2)[C@@H]1N [Compound 122, (3S,4S)-8-(5-((2-chloro-3-(pyrimidine-4-amino)phenyl)mercapto)pyrimidine-2-yl)-3-methyl-2-oxa-8-azaspiro[4.5]decane-4-amine]
IC50: ≤ 10 nM

C[C@@H]1OCC2(CCN(c3ncc(Sc4cccc(NC(=O)c5ncccn5)c4Cl)cn3)CC2)[C@@H]1N [Compound 123, N-(3-((2-((3S,4S)-4-amino-3-methyl-2-oxa-8-azaspiro[4.5]decane-8-yl I)pyrimidine-5-yl)mercapto)-2-chlorophenyl)pyrimidine-2-carboxamide]
IC50: ≤ 10 nM

C[C@@H]1OCC2(CCN(c3ncc(Sc4cccc(NC(=O)c5ccncn5)c4Cl)cn3)CC2)[C@@H]1N [Compound 124, N-(3-((2-((3S,4S)-4-amino-3-methyl-2-oxa-8-azaspiro[4.5]decane-8-yl of 1)pyrimidine-5-yl)mercapto)-2-chlorophenyl)pyrimidine-4-carboxamide]
IC50: ≤ 10 nM

C[C@@H]1OCC2(CCN(c3ncc(Sc4cccc(NC(=O)c5ccccn5)c4Cl)cn3)CC2)[C@@H]1N [Compound 125, N-(3-((2-((3S,4S)-4-amino-3-methyl-2-oxa-8-azaspiro[4.5]decane-8-yl)pyrimidine-5-yl)mercapto)-2-chlorophenyl)pyridine-2-carboxamide]
IC50: ≤ 10 nM

C[C@@H]1OCC2(CCN(c3ncc(Sc4cccc(NC(=O)c5cnccn5)c4Cl)cn3)CC2)[C@@H]1N [Compound 126, N-(3-((2-((3S,4S)-4-amino-3-methyl-2-oxa-8-azaspiro[4.5]decane-8-yl)pyrimidine-5-yl)mercapto)-2-chlorophenyl)pyrazine-2-carboxamide]
IC50: ≤ 10 nM

CCn1ccc(-c2cccc(Sc3ccc(N4CCC5(CC4)CO[C@@H](C)[C@H]5N)nn3)c2Cl)n1 [Compound 127, (3S,4S)-8-(3-((2-chloro-3-(1-ethyl-1H-pyrazole-3-yl)phenyl)mercapto)pyridazine-6-yl)-3-methyl-2-oxa-8-azaspiro[4.5]decane-4-amine]
IC50: ≤ 10 nM

CCn1ccc(-c2cccc(Sc3nnc(N4CCC5(CC4)CO[C@@H](C)[C@H]5N)nn3)c2Cl)n1 [Compound 128, (3S,4S)-8-(3-((2-chloro-3-(1-ethyl-1H-pyrazole-3-yl)phenyl)mercapto)-tetrazine-6-yl)-3-methyl-2-oxa-8-azaspiro[4.5]decane-4-amine]
IC50: ≤ 10 nM

CCn1ccc(-c2cccc(Sc3ncc(N4CCC5(CC4)CO[C@@H](C)[C@H]5N)nn3)c2Cl)n1 [Compound 129, (3S,4S)-8-(3-((2-chloro-3-(1-ethyl-1H-pyrazole-3-yl)phenyl)mercapto)-1,2,4-triazine-6-yl)-3-methyl-2-oxa-8-azaspiro[4.5]decane-4-amine]
IC50: ≤ 10 nM

C[C@@H]1OCC2(CCN(c3ncc(Sc4cccc(NC(=O)c5c(O)nc6n(c5=O)CCCC6)c4Cl)nn3)CC2)[C@@H]1N [Compound 130, N-(3-((2-((3S,4S)-4-amino-3-methyl-2-oxa-8-azaspiro[4.5]decane-8-yl)-1,2,4-triazine-6-yl)mercapto)-2-chlorophenyl)-2-hydroxy-4-oxo-6,7,8,9-tetrahydro-4H-pyridinyl[1,2-a]pyrimidine-3-carboxamide]
IC50: ≤ 10 nM

CCn1ccc(-c2cccc(Sc3cnc(N4CCC5(CC4)CO[C@@H](C)[C@H]5N)nn3)c2Cl)n1 [Compound 131, (3S,4S)-8-(6-((2-chloro-3-(1-ethyl-1H-pyrazole-3-yl)phenyl)mercapto)-1,2,4-triazine-3-yl)-3-methyl-2-oxa-8-azaspiro[4.5]decane-4-amine]
IC50: ≤ 10 nM

C[C@@H]1OCC2(CCN(c3ccc(Sc4cccc(-c5cnccn5)c4Cl)nn3)CC2)[C@@H]1N [Compound 132, (3S,4S)-8-(3-((2-chloro-3-(pyrazine-2-yl)phenyl)mercapto)pyridazine-6-yl)-3-methyl-2-oxa-8-azaspiro[4.5]decane-4-amine]
IC50: ≤ 10 nM
